Drawing on patent US8785445B2 (Array BioPharma Inc., priority 2008, dated 2014), this text covers EC50 for 23 compounds.

Structures are written as SMILES. Like-named read-outs stand apart in the source and are kept apart here.

The target of the assay is T1, human DP2 (Homo sapiens, UniProt Q9Y5Y4).
T1 construct: expressed in transfected cells; membranes prepared
T1 sequence (Q9Y5Y4 1-395): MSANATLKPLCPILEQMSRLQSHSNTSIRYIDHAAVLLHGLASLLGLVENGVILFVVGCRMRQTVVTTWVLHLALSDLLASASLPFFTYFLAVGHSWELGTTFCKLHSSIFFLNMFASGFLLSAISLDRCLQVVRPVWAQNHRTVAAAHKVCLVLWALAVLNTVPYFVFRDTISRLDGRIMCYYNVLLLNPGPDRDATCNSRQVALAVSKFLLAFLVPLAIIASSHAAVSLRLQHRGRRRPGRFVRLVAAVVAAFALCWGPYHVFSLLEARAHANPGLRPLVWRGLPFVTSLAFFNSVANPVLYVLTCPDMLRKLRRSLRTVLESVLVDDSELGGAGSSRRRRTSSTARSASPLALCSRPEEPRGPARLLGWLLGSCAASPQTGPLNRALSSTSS
The assay can be described thus: DP-2 binding inhibition assay (3H-PGD2, membranes of DP2-expressing K562 cells). The method, then:
The coding sequence of human DP2 was introduced into the human Leukemic cell line K562 by electroporation and stable clones expressing DP2 were obtained by limiting dilution followed by cell surface staining with a rat monoclonal antibody specific for human DP2. Membranes were prepared from one of these DP2 expressing clones and used to determine the ability of the compounds of the present invention to inhibit binding of prostaglandin D2 (PGD2) to its receptor DP2 in the presence of one or more of the following serum protein concentrations, 0.1% BSA, 1% HSA or 4% HSA, by the following procedure. […] After incubation for 60 minutes at room temperature, the assay was transferred to a filtration plate (#MAFB; Millipore Corporation, Bedford, Mass.), and washed three times with binding buffer. Radioactivity was measured by a scintillation counter (TopCount; PerkinElmer Life Sciences, Boston, Mass.). Nonspecific binding was determined by incubations in the presence of 1 μM unlabeled PGD2 or 5 μM of a known DP2 antagonist. IC50 values for inhibition of binding were determined for each compound tested from the inflexion point of a standard 4-parameter logistical curve fitted to the values obtained.

The mark [1] stands for this setting: 4% HSA, read-out: EC50 (nM) 4% HSA.
[2] abbreviates: 0.1% BSA, read-out: EC50 (nM) 0.1% BSA.
[3] abbreviates: 1% HSA, read-out: EC50 (nM) 1% HSA.

For orientation: EC50 means the concentration needed to bring the measured effect to its halfway point. Take `O=C(Nc1ccn(-c2ccc(Cl)cc2)n1)c1ccc(Oc2cc3c(cc2Cl)C(C(=O)O)CCO3)cc1` (centres unmarked) [Example 175, 6-chloro-7-(4-(1-(4-chlorophenyl)-1H-pyrazol-3-ylcarbamoyl)phenoxy)chroman-4-carboxylic acid]: the EC50 under setting [1] amounted to 80.7 nM.

Take `O=C(Nc1cc(-c2ccc(Cl)cc2)n[nH]1)c1ccc(Oc2cc3c(cc2Cl)C(C(=O)O)CCO3)cc1` (centres unmarked) [Example 180, 6-Chloro-7-(4-(3-(4-chlorophenyl)-1H-pyrazol-5-ylcarbamoyl)phenoxy)chroman-4-carboxylic acid]: under setting [1], the half-maximal effective concentration (EC50) amounted to 406 nM.

Turning to `N#Cc1cc2c(cc1Oc1ccc(C(=O)Nc3nc4ccccc4s3)cc1)OCCC2C(=O)O` (centres unmarked) [Example 194, 7-(4-(benzo[d]thiazol-2-ylcarbamoyl)phenoxy)-6-cyanochroman-4-carboxylic acid], the EC50 by setting is: under setting [2], 10.7 nM; under setting [3], 1240 nM.

As for `O=C(Nc1cccc(-c2ccc(Cl)cc2Cl)n1)c1ccc(Oc2cc3c(cc2Cl)C(C(=O)O)CCO3)cc1` (centres unmarked) [Example 103, Sodium 6-chloro-7-(4-(6-(2,4-dichlorophenyl)pyridin-2-ylcarbamoyl)phenoxy)chroman-4-carboxylate], the EC50 under setting [1] worked out at 57.1 nM.

Consider `COc1nc(C(F)(F)F)ccc1CCNC(=O)c1ccc(Oc2cc3c(cc2Cl)C(C(=O)O)CCO3)cc1` (centres unmarked) [Example 80, Sodium 6-chloro-7-(4-(2-(2-methoxy-6-(trifluoromethyl)pyridin-3-yl)ethylcarbamoyl)phenoxy)chroman-4-carboxylate], for which, under setting [1], the half-maximal effective concentration (EC50) stood at 25.1 nM.

On to `N#Cc1cc2c(cc1Oc1ccc(C(=O)Nc3cccc(-c4ccc5c(c4)CCO5)n3)cc1)OCCC2C(=O)O` (centres unmarked) [Example 43, 6-Cyano-7-(4-(6-(2,3-dihydrobenzofuran-5-yl)pyridin-2-ylcarbamoyl)-phenoxy)chroman-4-carboxylic acid], for which the concentration for a half-maximal effect (EC50) under setting [1] stood at 291 nM.

Consider `O=C(Nc1ccc(F)c(-c2ccc(Cl)cc2)n1)c1ccc(Oc2cc3c(cc2Cl)C(C(=O)O)CCO3)cc1` (centres unmarked) [Example 44, Sodium 6-Chloro-7-(4-(6-(4-chlorophenyl)-5-fluoropyridin-2-ylcarbamoyl)phenoxy)chroman-4-carboxylate], for which the concentration for a half-maximal effect (EC50) under setting [1] was found to be 5000 nM.

On to `O=C(Nc1ccc2cc(Cl)ccc2n1)c1ccc(Oc2cc3c(cc2Cl)[C@H](C(=O)O)CCO3)cc1` (single isomer, unassigned; enantiomer 1) [Example 36, 6-Chloro-7-(4-(6-chloroquinolin-2-ylcarbamoyl)phenoxy)chroman-4-carboxylic acid, Enantiomer 1], for which the concentration for a half-maximal effect (EC50) under setting [1] is 84 nM.

As for `O=C(Nc1ccn(-c2cccc(Cl)c2)n1)c1ccc(Oc2cc3c(cc2Cl)C(C(=O)O)CCO3)cc1` (centres unmarked) [Example 172, 6-chloro-7-(4-(1-(3-chlorophenyl)-1H-pyrazol-3-ylcarbamoyl)phenoxy)chroman-4-carboxylic acid], the half-maximal effective concentration (EC50) under setting [1] was 55 nM.

For the compound `O=C(Nc1ccc(-c2ccc(C(F)(F)F)cc2Cl)nn1)c1ccc(Oc2cc3c(cc2Cl)C(C(=O)O)CCO3)cc1` (centres unmarked) [Example 59, Sodium 6-chloro-7-(4-(6-(2-chloro-4-(trifluoromethyl)phenyl)pyridazin-3-ylcarbamoyl)phenoxy)chroman-4-carboxylate], under setting [1], the EC50 was determined as 283 nM.

`O=C(Nc1cccc(-c2ccc(Cl)cc2)n1)c1ccc(Oc2cc3c(cc2Cl)C(C(=O)O)CCO3)cc1` (centres unmarked) [Example 33, 6-Chloro-7-(4-(6-(4-chlorophenyl)pyridin-2-ylcarbamoyl)phenoxy)chroman-4-carboxylic acid]: the concentration for a half-maximal effect (EC50) under setting [1] turned out to be 30 nM.

`O=C(Nc1cccc(-c2ccc(Cl)cc2)n1)c1ccc(Oc2c(Cl)cc3c(c2Br)OCCC3C(=O)O)cc1` (centres unmarked) [Example 106, Sodium 8-bromo-6-chloro-7-(4-(6-(4-chlorophenyl)pyridin-2-ylcarbamoyl)phenoxy)chroman-4-carboxylate]: the 50% effective concentration (EC50) under setting [1] is 87.7 nM.

`COc1ccc(-c2ccc(NC(=O)c3ccc(Oc4cc5c(cc4Cl)C(C(=O)O)CCO5)cc3)nc2)c(OC)n1` (centres unmarked) [Example 74, Sodium 6-chloro-7-(4-(2′,6′-dimethoxy-3,3′-bipyridin-6-ylcarbamoyl)phenoxy)chroman-4-carboxylate]: under setting [1], the 50% effective concentration (EC50) stood at 794 nM.

On to `COc1ccc(CCNC(=O)c2ccc(Oc3cc4c(cc3Cl)C(C(=O)O)CCO4)cc2)cn1` (centres unmarked) [Example 217, 6-chloro-7-(4-(2-(6-methoxypyridin-3-yl)ethylcarbamoyl)phenoxy) chroman-4-carboxylic acid], for which the EC50 under setting [1] came out at 1370 nM.

Turning to `COc1ccc2nc(NC(=O)c3ccc(Oc4cc5c(cc4C#N)C(C(=O)O)CCO5)cc3)sc2c1` (centres unmarked) [Example 197, 6-cyano-7-(4-(6-methoxybenzo[d]thiazol-2-ylcarbamoyl)phenoxy) chroman-4-carboxylic acid], the EC50 was determined as 9.3 nM under setting [2] and 146 nM under setting [3].

For `O=C(NCCc1cccnc1-c1ccccc1Cl)c1ccc(Oc2cc3c(cc2Cl)C(C(=O)O)CCO3)cc1` (centres unmarked) [Example 224, 6-chloro-7-(4-(2-(2-(2-chlorophenyl)pyridin-3-yl)ethylcarbamoyl)phenoxy) chroman-4-carboxylic acid], the EC50 under setting [1] amounted to 998 nM.

`O=C(Nc1ccc(-c2ccc(C(F)(F)F)cc2)nn1)c1ccc(Oc2cc3c(cc2Cl)C(C(=O)O)CCO3)cc1` (single isomer, unassigned; enantiomer 2) [Example 185, Enantiomer 2 of sodium 6-chloro-7-(4-(6-(4-(trifluoromethyl)phenyl)pyridazin-3-ylcarbamoyl)phenoxy)chroman-4-carboxylate]: the EC50 was 1.2 nM under setting [2] and 60 nM under setting [1].

Take `N#Cc1cc2c(cc1Oc1ccc(C(=O)Nc3cccc(-c4cccc(C(F)(F)F)c4)n3)cc1)OCCC2C(=O)O` (centres unmarked) [Example 41, 6-Cyano-7-(4-(6-(3-(trifluoromethyl)phenyl)pyridin-2-ylcarbamoyl)-phenoxy)chroman-4-carboxylic acid]: under setting [1], the half-maximal effective concentration (EC50) was determined as 50.8 nM.

For `O=C(Nc1cncc(-c2ccccc2)n1)c1ccc(Oc2cc3c(cc2Cl)C(C(=O)O)CCO3)cc1` (centres unmarked) [Example 32, 6-Chloro-7-(4-(6-phenylpyrazin-2-ylcarbamoyl)phenoxy)chroman-4-carboxylic acid], under setting [1], the EC50 stood at 401 nM.

In the case of `O=C(Nc1ccc2cc(F)ccc2n1)c1ccc(Oc2cc3c(cc2Cl)C(C(=O)O)CCO3)cc1` (centres unmarked) [Example 18, 6-Chloro-7-(4-(6-fluoroquinolin-2-ylcarbamoyl)phenoxy)chroman-4-carboxylic acid], the EC50 under setting [1] was 185 nM.

As to `O=C(Nc1cccc(-c2ccc(Cl)c(Cl)c2)n1)c1ccc(Oc2cc3c(cc2Cl)C(C(=O)O)CCO3)cc1` (centres unmarked) [Example 52, 6-Chloro-7-(4-(6-(3,4-dichlorophenyl)pyridin-2-ylcarbamoyl)phenoxy)chroman-4-carboxylic acid], the concentration for a half-maximal effect (EC50) under setting [1] was 50.8 nM.

As to `Cc1csc(NC(=O)c2ccc(Oc3cc4c(cc3C#N)C(C(=O)O)CCO4)cc2)n1` (centres unmarked) [Example 177, 6-cyano-7-(4-(4-methylthiazol-2-ylcarbamoyl)phenoxy)chroman-4-carboxylic acid], the EC50 under setting [2] came to 68.2 nM.

In the case of `COc1ccc(-n2ccc(NC(=O)c3ccc(Oc4cc5c(cc4Cl)C(C(=O)O)CCO5)cc3)n2)cc1` (centres unmarked) [Example 170, 6-chloro-7-(4-(1-(4-methoxyphenyl)-1H-pyrazol-3-ylcarbamoyl)phenoxy)chroman-4-carboxylic acid], under setting [1], the concentration giving a half-maximal response (EC50) was found to be 292 nM.
